Measurements published in EP0018134B1, “Dihydropyridine derivatives, processes for their preparation and pharmaceutical compositions containing them” (BEECHAM GROUP PLC, priority 1979, dated 1980).

System: Fasted Mice
Experiment: Activity on Glucose Tolerance in Fasted Mice
Format: in vivo
Conditions: mice fasted 24 hours, 8 per group; dose 0.2 mmol/kg body weight orally in 1% aqueous carboxymethyl cellulose; glucose 1 g/kg sub-cutaneous 30 minutes later; vehicle control (dose 0) value in the row above; asterisks = significance vs controls
Protocol: For this assay mice were fasted for 24 hours before the experiment and then randomised so that each treatment group contained 8 mice. The compounds were dosed orally in 1% aqueous carboxymethyl cellulose (10 ml/kg body weight), and 30 minutes later glucose (1 g/kg) was administered by the sub-cutaneous route. Blood samples for glucose analysis were taken from the tail 60 minutes after glucose administration; the results are shown in the table below.
A standard system for indicating the significance of results with respect to the controls (dose = zero mmol/kg) which received the 1% aqueous carboxymethyl cellulose vehicle only, is as follows: • ** P < 0.05 • *** P < 0.01 • **** P < 0.001
In the following Table, column A represents the dose of compound (mmol/kg body weight) and column B represents the blood glucose concentration (mmol/litre) 60 minutes after sub-cutaneous glucose load.

SMILES | blood glucose concentration (mmol/litre) 60 minutes after sub-cutaneous glucose load
CC1CN(C(=Nc2ccccc2)N=c2ccccn2C)CC(C)O1 (stereo not shown) [Example 3, N-(1,2-dihydro-1-methyl-2-pyridylidene)-N'-phenyl-4-(2,6-dimethylmorpholine)-carboxamidine] | 3.48 mmol/L
Cn1ccccc1=NC(=Nc1ccccc1)NCc1ccccc1 [Example 4, N-benzyl-N'-(1,2-dihydro-1-methyl-2-pyridylidene)-N"-phenylguanidine] | 5.36 ** mmol/litre
CCN(CC)C(=Nc1ccccc1)N=c1c(C)cccn1C.I [Example 10, N,N-diethyl-N'-(1,2-dihydro-1,3-dimethyl-2-pyridylidene)-N"-phenylguanidine hydroiodide] | 5.54 *** mmol/litre
Cc1ccn(C)c(=NC(=Nc2ccccc2)N2CCOCC2)c1.I [Example 11, N-(1,2-dihydro-1,4-dimethyl-2-pyridylidene)-N'-phenyl-4-morpholinecarboxamidine hydroiodide] | 4.47 ** mmol/litre
Cn1cc(Br)ccc1=NC(=Nc1ccccc1)N1CCOCC1.I [Example 12, N-(5-bromo-1,2-dihydro-1-methyl-2-pyridylidene)-N'-phenyl-4-morpholinecarboxamidine hydroiodide] | 3.52 *** mmol/litre
COC(=O)c1ccc(=NC(=Nc2ccccc2)N2CCOCC2)n(C)c1.I [Example 13, N-(5-carbomethoxy-1,2-dihydro-1-methyl-2-pyridylidene)-N'-phenyl-4-morpholinecarboxamidine hydroiodide] | 3.36 ** mmol/litre
Cc1ccc(=NC(=Nc2ccccc2)N2CCOCC2)n(C)c1 [Example 14, N-(1,2-Dihydro-1,5-dimethyl-2-pyridylidene)-N'-phenyl-4-morpholinecarboxamidine] | 2.53 **** mmol/litre
